# Starred links: 1 amine or outer side, 2 acyl side, 3 side chain; linkers in the order of their positions; H or OH if unused. Positions of bridges follow the written chain, without caps; N, C: chain ends. Non-standard residues stand in square brackets, D forms with d. Residues, ends and D or L forms follow the SMILES beside them. Groups on a side chain read outwards from the residue. *: point of attachment. Trp(7-Me) = Cc1cccc2c(C[C@H](N)C(=O)O)c[nH]c12; C18 diacid = O=C(O)CCCCCCCCCCCCCCCCC(=O)*; C16 diacid = O=C(O)CCCCCCCCCCCCCCC(=O)*; γGlu = O=C(O)[C@H](CCC(=O)[*:2])N[*:1]; 2Nal = N[C@@H](Cc1ccc2ccccc2c1)C(=O)O; AEF = NCCOc1ccc(C[C@H](N)C(=O)O)cc1; Stearoyl = CCCCCCCCCCCCCCCCCC(=O)*; 3Pal = N[C@@H](Cc1cccnc1)C(=O)O; NMeK = CN[C@@H](CCCCN)C(=O)O; Pen = CC(C)(S)[C@H](N)C(=O)O; Thp = NC1(C(=O)O)CCOCC1; AEEA = NCCOCCOCC(=O)O; Sar = CNCC(=O)O
# Biological target: T1, IL-23R (Homo sapiens, UniProt Q5VWK5)
# T1 construct: HEK293 cells containing IL-23R, IL-12RP31 and a firefly luciferase reporter gene driven by a STAT-inducible promoter (Promega); host or cells: HEK293
# T1 sequence (Q5VWK5 24-629): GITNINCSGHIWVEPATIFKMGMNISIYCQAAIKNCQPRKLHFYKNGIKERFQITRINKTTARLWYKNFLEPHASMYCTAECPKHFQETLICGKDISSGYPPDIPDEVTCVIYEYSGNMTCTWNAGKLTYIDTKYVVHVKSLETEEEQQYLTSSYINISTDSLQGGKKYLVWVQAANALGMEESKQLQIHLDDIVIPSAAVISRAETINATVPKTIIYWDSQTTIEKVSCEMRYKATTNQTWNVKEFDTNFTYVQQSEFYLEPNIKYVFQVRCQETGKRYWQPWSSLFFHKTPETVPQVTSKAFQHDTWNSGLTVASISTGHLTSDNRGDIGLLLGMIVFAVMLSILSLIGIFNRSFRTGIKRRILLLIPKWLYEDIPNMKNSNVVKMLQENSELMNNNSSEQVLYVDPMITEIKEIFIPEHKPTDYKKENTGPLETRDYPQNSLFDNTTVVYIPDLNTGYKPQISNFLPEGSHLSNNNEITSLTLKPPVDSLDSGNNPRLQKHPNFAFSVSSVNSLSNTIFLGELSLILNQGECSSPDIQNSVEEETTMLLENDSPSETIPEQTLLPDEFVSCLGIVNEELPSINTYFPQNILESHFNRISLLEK
# Assay: IL23R Reporter Assay
# Assay type: cell-based
# From the text: IL-23 binding to IL-23 receptors results in the activation of the Signal Transducer and Activator of Transcription 3 (STAT3) by phosphorylation and downstream signaling events. Accordingly. the ability of the inhibitors described herein to block IL-23 action can be assessed by monitoring the status of STAT3 activation in response to IL-23. This may be accomplished in reporter cell assays or in intact cells such as peripheral blood mononuclear cells (PBMCs).
# Compounds were serially diluted in 100% (v/v) DMSO) and plated using an Echo acoustic dispenser (Labcyte) into 1536-well non-treated black assay plates (Corning #9146). […] After 5 h at 37° C., 5% CO2, 95% relative humidity, cells were placed at 20° C. and treated with BioGlo reagent (Promega) according to the Manufacturer's instructions. Luminescence was measured on a Pherastar FSX (BMG LabTech).
row,Structure (SMILES),IC50 [nM]
1,"CC(=O)NCCCC[C@@H]1NC(=O)[C@H](Cc2c[nH]c3c(C)cccc23)NC(=O)[C@H]([C@@H](C)O)NC(=O)[C@H](CC(N)=O)NC(=O)[C@@H](NC(=O)[C@@H](CCCNC(=N)N)NC(C)=O)C(C)(C)SSC(C)(C)[C@@H](C(=O)N[C@@H](Cc2ccc(OCCN)cc2)C(=O)N[C@@H](Cc2ccc3ccccc3c2)C(=O)NC2(C(=O)N[C@@H](CCCCNC(=O)COCCOCCNC(=O)COCCOCCNC(=O)CC[C@H](NC(=O)CCCCCCCCCCCCCCCCC(=O)O)C(=O)O)C(=O)N[C@@H](CC(N)=O)C(=O)N[C@@H](Cc3cccnc3)C(=O)N(C)CC(N)=O)CCOCC2)NC1=O [Example 27, MeCO-r-Pen*-N-T-7MeW-K(Ac)-Pen*-AEF-2Nal-THP-K(PEG2PEG2gEC18OH)-N-3Pya-Sar-CONH2] (Ac-[dR][Pen]NT[Trp(7-Me)]K(Ac)[Pen][AEF][2Nal][Thp]K([AEEA-AEEA-γGlu-C18 diacid])N[3Pal][Sar]-NH2; disulfide 2-7)",0.059
2,"CC(=O)NCCCC[C@@H]1NC(=O)[C@H](Cc2c[nH]c3c(C)cccc23)NC(=O)[C@H]([C@@H](C)O)NC(=O)[C@H](CC(N)=O)NC(=O)[C@@H](NC(C)=O)C(C)(C)SSC(C)(C)[C@@H](C(=O)N[C@@H](Cc2ccc(OCCN)cc2)C(=O)N[C@@H](Cc2ccc3ccccc3c2)C(=O)NC2(C(=O)N[C@@H](CCCCNC(=O)CC[C@H](NC(=O)CCCCCCCCCCCCCCC(=O)O)C(=O)O)C(=O)N[C@@H](CC(N)=O)C(=O)N[C@@H](Cc3cccnc3)C(=O)N(C)CC(N)=O)CCOCC2)NC1=O [Example 29, MeCO-Pen*-N-T-7MeW-K(Ac)-Pen*-AEF-2Nal-THP-K(gEC16OH)-N-3Pya-Sar-CONH2] (Ac-[Pen]NT[Trp(7-Me)]K(Ac)[Pen][AEF][2Nal][Thp]K([γGlu-C16 diacid])N[3Pal][Sar]-NH2; disulfide 1-6)",0.06
3,"CCCCCCCCCCCCCCCCCC(=O)N[C@@H](CCC(=O)NCCCC[C@H](NC(=O)C1(NC(=O)[C@H](Cc2ccc3ccccc3c2)NC(=O)[C@H](Cc2ccc(OCCN)cc2)NC(=O)[C@H]2NC(=O)[C@H](CCCCNC(C)=O)NC(=O)[C@H](Cc3c[nH]c4c(C)cccc34)NC(=O)[C@H]([C@@H](C)O)NC(=O)[C@H](CC(N)=O)NC(=O)[C@@H](NC(C)=O)C(C)(C)SSC2(C)C)CCOCC1)C(=O)N[C@@H](CC(N)=O)C(=O)N[C@@H](Cc1cccnc1)C(=O)N(C)CC(N)=O)C(=O)O [Example 31, MeCO-Pen*-N-T-7MeW-K(Ac)-Pen*-AEF-2Nal-THP-K(gEC18)-N-3Pya-Sar-CONH2] (Ac-[Pen]NT[Trp(7-Me)]K(Ac)[Pen][AEF][2Nal][Thp]K([γGlu-Stearoyl])N[3Pal][Sar]-NH2; disulfide 1-6)",0.052
4,"CC(=O)NCCCC[C@@H]1NC(=O)[C@H](Cc2c[nH]c3c(C)cccc23)NC(=O)[C@H]([C@@H](C)O)NC(=O)[C@H](CC(N)=O)NC(=O)[C@@H](NC(C)=O)C(C)(C)SSC(C)(C)[C@@H](C(=O)N[C@@H](Cc2ccc(OCCN)cc2)C(=O)N[C@@H](Cc2ccc3ccccc3c2)C(=O)NC2(C(=O)N[C@@H](CCCCNC(=O)COCCOCCNC(=O)CC[C@H](NC(=O)CCCCCCCCCCCCCCC(=O)O)C(=O)O)C(=O)N[C@@H](CC(N)=O)C(=O)N[C@@H](Cc3cccnc3)C(=O)N(C)CC(N)=O)CCOCC2)NC1=O [Example 34, MeCO-Pen*-N-T-7MeW-K(Ac)-Pen*-AEF-2Nal-THP-K(PEG2gEC16OH)-N-3Pya-Sar-CONH2] (Ac-[Pen]NT[Trp(7-Me)]K(Ac)[Pen][AEF][2Nal][Thp]K([AEEA-γGlu-C16 diacid])N[3Pal][Sar]-NH2; disulfide 1-6)",0.065
5,"CC(=O)NCCCC[C@@H]1NC(=O)[C@H](Cc2c[nH]c3c(C)cccc23)NC(=O)[C@H]([C@@H](C)O)NC(=O)[C@H](CC(N)=O)NC(=O)[C@@H](NC(C)=O)C(C)(C)SSC(C)(C)[C@@H](C(=O)N[C@@H](Cc2ccc(OCCN)cc2)C(=O)N[C@@H](Cc2ccc3ccccc3c2)C(=O)NC2(C(=O)N[C@@H](CCCCNC(=O)COCCOCCNC(=O)CC[C@H](NC(=O)CCCCCCCCCCCCCCCCC(=O)O)C(=O)O)C(=O)N[C@@H](CC(N)=O)C(=O)N[C@@H](Cc3cccnc3)C(=O)N(C)CC(N)=O)CCOCC2)NC1=O [Example 35, MeCO-Pen*-N-T-7MeW-K(Ac)-Pen*-AEF-2Nal-THP-K(PEG2gEC18OH)-N-3Pya-Sar-CONH2] (Ac-[Pen]NT[Trp(7-Me)]K(Ac)[Pen][AEF][2Nal][Thp]K([AEEA-γGlu-C18 diacid])N[3Pal][Sar]-NH2; disulfide 1-6)",0.19
6,"CC(=O)NCCCC[C@@H]1NC(=O)[C@H](Cc2c[nH]c3c(C)cccc23)NC(=O)[C@H]([C@@H](C)O)NC(=O)[C@H](CC(N)=O)NC(=O)[C@@H](NC(C)=O)C(C)(C)SSC(C)(C)[C@@H](C(=O)N[C@@H](Cc2ccc(OCCN)cc2)C(=O)N[C@@H](Cc2ccc3ccccc3c2)C(=O)NC2(C(=O)N[C@@H](CCCCNC(=O)COCCOCCNC(=O)COCCOCCNC(=O)CC[C@H](NC(=O)CCCCCCCCCCCCCCCCCCC(=O)O)C(=O)O)C(=O)N[C@@H](CC(N)=O)C(=O)N[C@@H](Cc3cccnc3)C(=O)N(C)CC(N)=O)CCOCC2)NC1=O [Example 36, MeCO-Pen*-N-T-7MeW-K(Ac)-Pen*-AEF-2Nal-THP-K(PEG2PEG2gEC20OH)-N-3Pya-Sar-CONH2]",0.14

# Compounds with a lower IC50, results first:
row,IC50 [nM],Structure (SMILES)
1,0.026,"CC(=O)NCCCC[C@@H]1NC(=O)[C@H](Cc2c[nH]c3c(C)cccc23)NC(=O)[C@H]([C@@H](C)O)NC(=O)[C@H](CC(N)=O)NC(=O)[C@@H](NC(=O)[C@@H](CCCNC(=N)N)NC(C)=O)C(C)(C)SSC(C)(C)[C@@H](C(=O)N[C@@H](Cc2ccc(OCCN)cc2)C(=O)N[C@@H](Cc2ccc3ccccc3c2)C(=O)NC2(C(=O)N[C@@H](CCC(=O)O)C(=O)N[C@@H](CC(N)=O)C(=O)N[C@@H](Cc3cccnc3)C(=O)N(C)[C@@H](CCCCNC(=O)COCCOCCNC(=O)COCCOCCNC(=O)CC[C@H](NC(=O)CCCCCCCCCCCCCCC(=O)O)C(=O)O)C(N)=O)CCOCC2)NC1=O [Example 22, MeCO-r-Pen*-N-T-7MeW-K(Ac)-Pen*-AEF-2Nal-THP-E-N-3Pya-NMeK(PEG2PEG2gEC16OH)-CONH2] (Ac-[dR][Pen]NT[Trp(7-Me)]K(Ac)[Pen][AEF][2Nal][Thp]EN[3Pal][NMeK]([AEEA-AEEA-γGlu-C16 diacid])-NH2; disulfide 2-7)"
2,0.025,"CC(=O)NCCCC[C@@H]1NC(=O)[C@H](Cc2c[nH]c3c(C)cccc23)NC(=O)[C@H]([C@@H](C)O)NC(=O)[C@H](CC(N)=O)NC(=O)[C@@H](NC(=O)[C@@H](CCCNC(=N)N)NC(C)=O)C(C)(C)SSC(C)(C)[C@@H](C(=O)N[C@@H](Cc2ccc(OCCNC(=O)COCCOCCNC(=O)COCCOCCNC(=O)CC[C@H](NC(=O)CCCCCCCCCCCCCCC(=O)O)C(=O)O)cc2)C(=O)N[C@@H](Cc2ccc3ccccc3c2)C(=O)NC2(C(=O)N[C@@H](CCCCNC(C)=O)C(=O)N[C@@H](CC(N)=O)C(=O)N[C@@H](Cc3cccnc3)C(=O)N(C)CC(N)=O)CCOCC2)NC1=O [Example 26, MeCO-r-Pen*-N-T-7MeW-K(Ac)-Pen*-AEF(PEG2PEG2gEC16OH)-2Nal-THP-K(Ac)-N-3Pya-Sar-CONH2] (Ac-[dR][Pen]NT[Trp(7-Me)]K(Ac)[Pen][AEF]([AEEA-AEEA-γGlu-C16 diacid])[2Nal][Thp]K(Ac)N[3Pal][Sar]-NH2; disulfide 2-7)"
3,0.017,"CC(=O)NCCCC[C@@H]1NC(=O)[C@H](Cc2c[nH]c3c(C)cccc23)NC(=O)[C@H]([C@@H](C)O)NC(=O)[C@H](CC(N)=O)NC(=O)[C@@H](NC(=O)[C@@H](CCCNC(=N)N)NC(=O)COCCOCCNC(=O)COCCOCCNC(=O)CC[C@H](NC(=O)CCCCCCCCCCCCCCC(=O)O)C(=O)O)C(C)(C)SSC(C)(C)[C@@H](C(=O)N[C@@H](Cc2ccc(OCCN)cc2)C(=O)N[C@@H](Cc2ccc3ccccc3c2)C(=O)NC2(C(=O)N[C@@H](CCCCNC(C)=O)C(=O)N[C@@H](CC(N)=O)C(=O)N[C@@H](Cc3cccnc3)C(=O)N(C)CC(N)=O)CCOCC2)NC1=O [Example 24, HOC16gEPEG2PEG2-r-Pen*-N-T-7MeW-K(Ac)-Pen*-AEF-2Nal-THP-K(Ac)-N-3Pya-Sar-CONH2] ({C16 diacid-γGlu-AEEA-AEEA}-[dR][Pen]NT[Trp(7-Me)]K(Ac)[Pen][AEF][2Nal][Thp]K(Ac)N[3Pal][Sar]-NH2; disulfide 2-7)"
